Molecules are shown by their SMILES.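 Briefly, cells in 96-well plates were exposed to five compound concentrations for 48 h, and endpoints were estimated by linear interpolation. TGI: concentration producing complete growth inhibition.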

In the first assay the test system is HOP-62 NSCLC. In words: inhibition of tumour cell growth, NCI panel, 48 h.
Compound `O=[N+]([O-])c1ccc(S(=O)(=O)N=Ic2ccccc2)cc1` returned a TGI of more than 100 µM.
In the case of `CCOC(=O)C1=C(N)Oc2ccc(Br)cc2C1C(C#N)C(=O)OCC` (stereo unspecified), the TGI is more than 100 µM.
On to `NCCCNCCCCNCCCN`, for which the TGI is more than 100 µM.
Compound `O=c1c2c(-c3ccccc3)onc2n(-c2ccccc2)c(=O)n1-c1ccccc1` displayed a TGI of 54.9 µM.
Regarding `CCOC(=O)c1cc(C2(O)CCN(CC(C)CC)C2=O)c(-c2cc(C)no2)[nH]1` (stereo unspecified), the TGI was more than 100 µM.

Another assay deals with UACC-62 melanoma. Nature of the assay: inhibition of tumour cell growth, NCI panel, 48 h.
As to `Cc1ccc(-c2c3c(n(C4OC(CO)C(O)C(O)C4O)c(=S)c2C#N)CC(C)(C)CC3=O)cc1` (stereo unspecified), the TGI is more than 100 µM.
`CCOC(=O)c1csc(NC(=O)CN2CCN(C)CC2)n1`: the TGI is more than 100 µM.
Compound `COc1ccc(CN(Cc2ccc(OC)cc2)C(=O)CC2(O)C=CCC2)cc1` (stereo unspecified) yielded a TGI of more than 100 µM.
The compound `COc1ccc(C(OCC2OC(n3cc(C)c(=O)[nH]c3=O)CC2n2cc(Cn3cc(Br)c(=O)[nH]c3=O)nn2)(c2ccccc2)c2ccccc2)cc1` (stereo unspecified) showed a TGI of more than 100 µM.
In turn, `CSc1ncnc2c1cnn2CCCCO` returned a TGI of more than 100 µM.
Regarding `COc1ccc(OC)c(C2Cc3cnc4nc(N)nc(N)c4c3C2)c1` (stereo unspecified), the TGI was determined as 51.5 µM.
`CC(NNC(=O)CC(=O)N(C(=O)c1ccccc1)c1ccc(Cl)cc1)c1cc2ccccc2oc1=O` (stereo unspecified): the TGI was more than 10 µM.
In the case of `O=[N+]([O-])c1ccc(S(=O)(=O)N=Ic2ccccc2)cc1`, the TGI is more than 100 µM.
Turning to `CCOC(=O)C1=C(N)Oc2ccc(Br)cc2C1C(C#N)C(=O)OCC` (stereo unspecified), the TGI amounted to 83.5 µM.
The compound `NCCCNCCCCNCCCN` returned a TGI of more than 100 µM.
With `O=c1c2c(-c3ccccc3)onc2n(-c2ccccc2)c(=O)n1-c1ccccc1`, the TGI is 32 µM.
On the same count and under the same terms, then `CCOC(=O)c1cc(C2(O)CCN(CC(C)CC)C2=O)c(-c2cc(C)no2)[nH]1` (stereo unspecified), with more than 100 µM.

The subject of a further assay is SK-MEL-2 melanoma. In words: inhibition of tumour cell growth, NCI panel, 48 h.
The compound `Cc1ccc(-c2c3c(n(C4OC(CO)C(O)C(O)C4O)c(=S)c2C#N)CC(C)(C)CC3=O)cc1` (stereo unspecified) gave a TGI of more than 100 µM.
With `CCOC(=O)c1csc(NC(=O)CN2CCN(C)CC2)n1`, the TGI is more than 100 µM.
On the same count and under the same terms, with `COc1ccc(CN(Cc2ccc(OC)cc2)C(=O)CC2(O)C=CCC2)cc1` (stereo unspecified) the figure was more than 100 µM.
Same read-out and setting: with `COc1ccc(C(OCC2OC(n3cc(C)c(=O)[nH]c3=O)CC2n2cc(Cn3cc(Br)c(=O)[nH]c3=O)nn2)(c2ccccc2)c2ccccc2)cc1` (stereo unspecified) the figure was more than 100 µM.
In turn, `CSc1ncnc2c1cnn2CCCCO` came in with a TGI of more than 100 µM.
Regarding `COc1ccc(OC)c(C2Cc3cnc4nc(N)nc(N)c4c3C2)c1` (stereo unspecified), the TGI is 42.2 µM.
In turn, `CC(NNC(=O)CC(=O)N(C(=O)c1ccccc1)c1ccc(Cl)cc1)c1cc2ccccc2oc1=O` (stereo unspecified) registered a TGI of more than 10 µM.
`O=[N+]([O-])c1ccc(S(=O)(=O)N=Ic2ccccc2)cc1` displayed a TGI of more than 100 µM.
In the case of `CCOC(=O)C1=C(N)Oc2ccc(Br)cc2C1C(C#N)C(=O)OCC` (stereo unspecified), the TGI turned out to be 39.1 µM.
In the case of `NCCCNCCCCNCCCN`, the TGI was more than 100 µM.
`O=c1c2c(-c3ccccc3)onc2n(-c2ccccc2)c(=O)n1-c1ccccc1` came in with a TGI of 25 µM.
For `CCOC(=O)c1cc(C2(O)CCN(CC(C)CC)C2=O)c(-c2cc(C)no2)[nH]1` (stereo unspecified), the TGI is more than 100 µM.

The test system of the next assay is SK-MEL-28 melanoma. In words: inhibition of tumour cell growth, NCI panel, 48 h.
Consider `Cc1ccc(-c2c3c(n(C4OC(CO)C(O)C(O)C4O)c(=S)c2C#N)CC(C)(C)CC3=O)cc1` (stereo unspecified), for which the TGI was more than 100 µM.
On the same count and under the same terms, then `CCOC(=O)c1csc(NC(=O)CN2CCN(C)CC2)n1`, with more than 100 µM; and `COc1ccc(CN(Cc2ccc(OC)cc2)C(=O)CC2(O)C=CCC2)cc1` (stereo unspecified), with more than 100 µM.
Still for that read-out and setting: with `COc1ccc(C(OCC2OC(n3cc(C)c(=O)[nH]c3=O)CC2n2cc(Cn3cc(Br)c(=O)[nH]c3=O)nn2)(c2ccccc2)c2ccccc2)cc1` (stereo unspecified) the figure was more than 100 µM.
Still for that read-out and setting: then `CSc1ncnc2c1cnn2CCCCO`, with more than 100 µM; and `COc1ccc(OC)c(C2Cc3cnc4nc(N)nc(N)c4c3C2)c1` (stereo unspecified), with more than 100 µM.
In turn, `CC(NNC(=O)CC(=O)N(C(=O)c1ccccc1)c1ccc(Cl)cc1)c1cc2ccccc2oc1=O` (stereo unspecified) displayed a TGI of more than 10 µM.
In the case of `O=[N+]([O-])c1ccc(S(=O)(=O)N=Ic2ccccc2)cc1`, the TGI is more than 100 µM.
As for `CCOC(=O)C1=C(N)Oc2ccc(Br)cc2C1C(C#N)C(=O)OCC` (stereo unspecified), the TGI came to 32.4 µM.
The compound `CCOC(=O)c1cc(C2(O)CCN(CC(C)CC)C2=O)c(-c2cc(C)no2)[nH]1` (stereo unspecified) showed a TGI of more than 100 µM.

A further assay concerns SNB-19 CNS. Nature of the assay: inhibition of tumour cell growth, NCI panel, 48 h.
Turning to `Cc1ccc(-c2c3c(n(C4OC(CO)C(O)C(O)C4O)c(=S)c2C#N)CC(C)(C)CC3=O)cc1` (stereo unspecified), the TGI is more than 100 µM.
Compound `CCOC(=O)c1csc(NC(=O)CN2CCN(C)CC2)n1` registered a TGI of more than 100 µM.
In the case of `COc1ccc(CN(Cc2ccc(OC)cc2)C(=O)CC2(O)C=CCC2)cc1` (stereo unspecified), the TGI was more than 100 µM.
The compound `COc1ccc(C(OCC2OC(n3cc(C)c(=O)[nH]c3=O)CC2n2cc(Cn3cc(Br)c(=O)[nH]c3=O)nn2)(c2ccccc2)c2ccccc2)cc1` (stereo unspecified) yielded a TGI of more than 100 µM.
On to `CSc1ncnc2c1cnn2CCCCO`, for which the TGI was more than 100 µM.
As for `COc1ccc(OC)c(C2Cc3cnc4nc(N)nc(N)c4c3C2)c1` (stereo unspecified), the TGI was more than 100 µM.
Take `CC(NNC(=O)CC(=O)N(C(=O)c1ccccc1)c1ccc(Cl)cc1)c1cc2ccccc2oc1=O` (stereo unspecified): the TGI is more than 10 µM.
For the compound `O=[N+]([O-])c1ccc(S(=O)(=O)N=Ic2ccccc2)cc1`, the TGI is more than 100 µM.
Still for that read-out and setting: with `CCOC(=O)C1=C(N)Oc2ccc(Br)cc2C1C(C#N)C(=O)OCC` (stereo unspecified) the figure was 68.1 µM; with `NCCCNCCCCNCCCN`, more than 100 µM.
The same measure, in the same setting: with `O=c1c2c(-c3ccccc3)onc2n(-c2ccccc2)c(=O)n1-c1ccccc1` the figure was more than 100 µM; with `CCOC(=O)c1cc(C2(O)CCN(CC(C)CC)C2=O)c(-c2cc(C)no2)[nH]1` (stereo unspecified), more than 100 µM.

The subject of the next assay is HT29 colon. Nature of the assay: inhibition of tumour cell growth, NCI panel, 48 h.
As to `Cc1ccc(-c2c3c(n(C4OC(CO)C(O)C(O)C4O)c(=S)c2C#N)CC(C)(C)CC3=O)cc1` (stereo unspecified), the TGI was more than 100 µM.
As to `CCOC(=O)c1csc(NC(=O)CN2CCN(C)CC2)n1`, the TGI is more than 100 µM.
Consider `COc1ccc(CN(Cc2ccc(OC)cc2)C(=O)CC2(O)C=CCC2)cc1` (stereo unspecified), for which the TGI was more than 100 µM.
As for `COc1ccc(C(OCC2OC(n3cc(C)c(=O)[nH]c3=O)CC2n2cc(Cn3cc(Br)c(=O)[nH]c3=O)nn2)(c2ccccc2)c2ccccc2)cc1` (stereo unspecified), the TGI was more than 100 µM.
`CSc1ncnc2c1cnn2CCCCO`: the TGI was more than 100 µM.

(Values after PubChem BioAssay (NCI).)
